≈ marks a conversion by molar mass, not a printed value. Like-named read-outs stand apart in the source and are kept apart here.
Experiments:
Escherichia coli = assay: Antibacterial bioassay, inhibition of bacterial growth (MIC); type: cell-based, Escherichia coli (ATCC 11775); conditions: for MIC: Escherichia coli
Protocol: (§1) Preparation of the compounds: antifouling efficiency of the compounds was assessed towards the inhibition of growth of key bacteria involved in marine and terrestrial surface colonisation. All bioassays were run in six replicates and using two batches of organisms. Compounds were tested at 0.01, 0.1, and 1 µg/mL. 96 well-plates were used and were coated with the compounds. Methanol was used as a carrier solvent and after its evaporation plates were sterilized under UV exposure for 30 min [41].
(§2) Seven strains of marine bacteria i.e., Halomonas aquamarina (ATCC 14400), Polaribacter irgensii (ATCC 700398), Shewanella putrefaciens (ATCC 8071), Roseobacter littoralis (ATCC 495666), Pseudoalteromonas elyakovii (ATCC 700519), Vibrio aestuarianus (ATCC 35048), Vibrio natriegens (ATCC 14058), and three strains of terrestrial bacteria, i.e., Escherichia coli (ATCC 11775), Staphylococcus aureus (ATCC 126000), and Pseudomonas aeruginosa (ATCC 16145) were used to assess the antibacterial potency of the compounds.
(§3) Inhibition of bacterial growth: experiments were run as previously described by Maréchal et al.. 96-well plates containing the compounds were inoculated with the bacteria (2 × 10^8 cells/mL) in LB medium ([…], Sigma, Andover, UK), (supplemented with NaCl (35 g/L) for marine strains), at 30 °C for 48 h. After incubation, the intensity of growth in the presence of the tested compounds and control (media only) was assessed by measurement of the OD 620 nm using a spectrophotometer (Apollo LB912, Berthold Technologies). Results are expressed as minimum inhibitory concentrations (MIC values).

[1] = target: T1, Acetylcholinesterase from Electrophorus electricus (Electrophorus electricus, UniProt O42275); assay: biochemical; type: biochemical
T1 construct: purchased Sigma-Aldrich
Protocol: This bioassay was set up after Ellman. This method is the most commonly used to screen compounds against this target. All reagents, buffers, and salts were purchased from Sigma-Aldrich (Saint-Louis, MO, USA). Two buffer solutions were prepared extemporaneously: buffer A (50 mM Tris-HCl pH 8 + 0.1% BSA); and buffer B (50 mM Tris-HCl pH 8 + 0.1 M NaCl + 0.02 M MgCl2.6H2O). Acetylcholinesterase from Electrophorus electricus (EC 3.1.1.7, AChE−0.2 U/mL) was dissolved in buffer A, 5,5′-dithiobis-2-nitrobenzoic acid (DTNB-Ellman’s reagent−3 mM) in buffer B, and acetylthiocholine iodide (ACTI−6 mM) in H2O. Tested compounds were dissolved in DMSO at 10 mg/mL, stored at −20 °C, and subsequently 100 times diluted in H2O before the assay. 10 μL AChE was preincubated for 10 min with 70 μL DTNB and 10 μL compounds solution in 96-well microplates. The enzymatic reaction was initiated with the addition of 10 μL ACTI, a synthetic substrate of AChE. After 30 min at 25 °C, absorbance of the plate was measured at 405 nm using a microplate reader (Tecan Infinite M200). Percentage of inhibition was calculated using the following equation: 100 × (Acontrol − Asample)/(Acontrol − A0), where Acontrol is the average absorbance of the wells in which tested compounds were replaced by water, Asample is the absorbance of the well with tested compound, and A0 the average absorbance of blank wells where AChE was omitted. Products leading to 50% inhibition of AChE were then submitted to dose-response experiments. Serial dilutions of the products were prepared (100, 50, 25, 12.5, 6.25, 3.125, 1.5625, and 0.78125 µg/mL). Enzymatic assay was performed according to the same procedure with 10 µL of each concentration added. IC50 values (concentration leading to 50% inhibition of enzymatic activity) were graphically determined by plotting the percentage of inhibition against the compound concentrations.
Each assay was performed in triplicate and results are expressed as mean values ± SD.

DNMT1 = target: T2, DNMT1 (Homo sapiens, UniProt P26358); assay: In vitro DNMT1 activity inhibition assay; type: biochemical; conditions: compounds at 50 µM, 25 ng purified DNMT1, 2 h, 37 °C, three independent experiments
T2 construct: purchased Active Motif
Protocol: DNMT1 activity was measured using in vitro DNMT activity/inhibition assay (Active Motif, Rixensart, Belgium) according to manufacturer’s instructions. All compounds were used at a final 50 µM concentration. The methylation reaction was performed by incubating 25 ng of purified DNMT1 with compounds for 2 h at 37 °C in the presence of 0.01% Triton X-100. The methylated DNA was then recognized by the His-tagged methyl-CpG binding domain protein 2b. The addition of a poly-histidine antibody conjugated to horseradish peroxidase provided a colorimetric readout quantified with a spectrophotometer (SpectraCount, Packard) at the wavelength of 450 nm. Data of DNMT1 activity are reported as percentage of control.

Vibrio aesturianus = assay: Antibacterial bioassay, inhibition of bacterial growth (MIC); type: cell-based, Vibrio aestuarianus (ATCC 35048); conditions: for MIC: Vibrio
Protocol: as §1, §2, §3

Halomonas aquamarina = assay: as above; type: cell-based, Halomonas aquamarina (ATCC 14400); conditions: for MIC Halomonas aquamarina / MIC: 48 h; for MIC toward Halomonas aquamarina: the lowest concentration tested; for MIC: Vreelandella aquamarina, read-out: MIC Halomonas aquamarina
Protocol: as §1, §2, §3

Roseobacter littoralis = assay: as above; type: cell-based, Roseobacter littoralis (ATCC 495666); conditions: 48 h; for MIC: read-out: MIC Roseobacter littoralis
Protocol: as §1, §2, §3

[2] = Degradation of 11-epi-fistularin-3 in acetonitrile/water (+0.1% HCOOH); type: physicochemical; conditions: acetonitrile/water (+0.1% HCOOH) 1/1, room temperature, two weeks; HPLC analysis
Source text: We then decided to manage the degradation process of epi-fistularin-3 (1) in a less drastic conditions by dissolving it in a mixture of acetonitrile/water (+0.1% HCOOH) 1/1 and stirring at room temperature for two weeks. The reaction mixture was then dried under vacuum and chromatographed.
The reaction mixture was then dried under vacuum and submitted for HPLC analysis.

[3] = tested at 0.01, 0.1 and 1 µg/mL, 30 °C, 48 h, OD 620 nm
[4] = mean ± SD, triplicate, 30 min at 25 °C, absorbance 405 nm, read-out: Acetylcholinesterase IC50
[5] = tested at 0.01, 0.1 and 1 µg/mL, 30 °C, OD 620 nm
[6] = tested at 0.01, 0.1 and 1 µg/mL, 30 °C, 48 h, OD 620 nm, read-out: MIC Escherichia coli
[7] = tested at 0.01, 0.1 and 1 µg/mL, 30 °C, 48 h, OD 620 nm, read-out: MIC Vibrio aesturianus

T1 sequence (O42275 24-633): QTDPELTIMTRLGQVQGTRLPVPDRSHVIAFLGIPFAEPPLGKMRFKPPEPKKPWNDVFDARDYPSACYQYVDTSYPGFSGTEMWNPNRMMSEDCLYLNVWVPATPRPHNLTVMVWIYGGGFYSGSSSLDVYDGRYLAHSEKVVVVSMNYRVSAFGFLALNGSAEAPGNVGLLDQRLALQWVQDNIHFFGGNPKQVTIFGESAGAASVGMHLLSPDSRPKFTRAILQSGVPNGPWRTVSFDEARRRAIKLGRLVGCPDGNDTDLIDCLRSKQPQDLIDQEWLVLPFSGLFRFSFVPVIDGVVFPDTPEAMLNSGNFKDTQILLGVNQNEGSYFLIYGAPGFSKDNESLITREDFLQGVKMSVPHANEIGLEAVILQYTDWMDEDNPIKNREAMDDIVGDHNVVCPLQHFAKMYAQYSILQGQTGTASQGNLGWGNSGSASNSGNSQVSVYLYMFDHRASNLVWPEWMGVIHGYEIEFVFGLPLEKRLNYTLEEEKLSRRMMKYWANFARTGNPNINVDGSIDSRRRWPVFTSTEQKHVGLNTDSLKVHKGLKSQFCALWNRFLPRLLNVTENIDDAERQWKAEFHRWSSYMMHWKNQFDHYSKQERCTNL
T2 sequence (P26358 whole entry): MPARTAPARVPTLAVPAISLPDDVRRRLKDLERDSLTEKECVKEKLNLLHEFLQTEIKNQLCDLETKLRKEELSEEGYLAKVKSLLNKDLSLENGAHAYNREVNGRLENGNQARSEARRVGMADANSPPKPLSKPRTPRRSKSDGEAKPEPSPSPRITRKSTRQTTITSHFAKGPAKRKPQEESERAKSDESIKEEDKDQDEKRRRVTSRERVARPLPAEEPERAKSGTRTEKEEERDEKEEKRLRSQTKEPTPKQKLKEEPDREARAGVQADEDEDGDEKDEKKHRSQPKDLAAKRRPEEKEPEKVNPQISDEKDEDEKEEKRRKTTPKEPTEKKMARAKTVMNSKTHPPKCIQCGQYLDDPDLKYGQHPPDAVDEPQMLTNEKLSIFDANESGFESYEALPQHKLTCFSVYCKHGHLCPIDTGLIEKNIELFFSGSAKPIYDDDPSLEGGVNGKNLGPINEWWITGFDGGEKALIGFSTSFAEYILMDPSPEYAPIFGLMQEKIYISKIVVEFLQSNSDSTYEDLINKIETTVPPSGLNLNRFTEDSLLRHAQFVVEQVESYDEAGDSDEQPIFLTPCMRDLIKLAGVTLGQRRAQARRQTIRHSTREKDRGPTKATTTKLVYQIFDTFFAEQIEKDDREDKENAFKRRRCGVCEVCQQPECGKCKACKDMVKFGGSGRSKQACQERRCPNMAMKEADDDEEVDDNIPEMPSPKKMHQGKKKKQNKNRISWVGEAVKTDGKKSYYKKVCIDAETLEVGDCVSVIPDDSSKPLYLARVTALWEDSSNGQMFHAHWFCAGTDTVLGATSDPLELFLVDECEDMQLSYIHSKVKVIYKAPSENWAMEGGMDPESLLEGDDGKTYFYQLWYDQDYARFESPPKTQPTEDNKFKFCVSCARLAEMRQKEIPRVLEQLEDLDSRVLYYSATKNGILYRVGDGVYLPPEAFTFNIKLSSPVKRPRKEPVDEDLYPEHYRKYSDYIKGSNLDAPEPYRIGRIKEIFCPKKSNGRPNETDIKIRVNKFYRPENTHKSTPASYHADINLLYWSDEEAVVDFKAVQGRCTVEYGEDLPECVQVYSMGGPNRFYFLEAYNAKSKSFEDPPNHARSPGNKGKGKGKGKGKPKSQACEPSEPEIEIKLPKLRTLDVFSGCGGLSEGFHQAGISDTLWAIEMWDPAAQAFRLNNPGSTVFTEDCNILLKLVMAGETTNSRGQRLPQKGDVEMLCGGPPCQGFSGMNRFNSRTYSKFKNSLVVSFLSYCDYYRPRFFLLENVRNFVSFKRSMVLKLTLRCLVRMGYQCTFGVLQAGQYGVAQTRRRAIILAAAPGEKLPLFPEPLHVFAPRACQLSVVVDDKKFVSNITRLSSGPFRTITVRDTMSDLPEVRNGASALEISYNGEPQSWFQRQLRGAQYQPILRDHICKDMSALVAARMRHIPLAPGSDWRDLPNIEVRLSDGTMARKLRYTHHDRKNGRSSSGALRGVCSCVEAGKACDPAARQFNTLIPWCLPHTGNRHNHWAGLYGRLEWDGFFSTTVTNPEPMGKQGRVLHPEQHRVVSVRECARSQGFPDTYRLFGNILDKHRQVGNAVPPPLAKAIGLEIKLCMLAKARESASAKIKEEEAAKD

Molecule | MIC Escherichia coli (Escherichia coli; [3]) [µg/mL] | IC50 [1, 4] [µM] | MIC Vibrio aesturianus (Vibrio aesturianus; [3]) [µg/mL] | MIC Halomonas aquamarina (Halomonas aquamarina; [5]) | MIC Roseobacter littoralis (Roseobacter littoralis; [5]) [µg/mL] | MIC (Escherichia coli; [6]) [µM] | MIC (Vibrio aesturianus; [7]) [µM] | MIC (Halomonas aquamarina; [5]) [µM] | MIC (Roseobacter littoralis; [5]) [µM] | other results
COC1=C(Br)C(O)C2(C=C1Br)CC(C(=O)NCCCOc1c(Br)cc(CCNC(=O)C3=NOC4(C=C(Br)C(OC)=C(Br)C4O)C3)cc1Br)=NO2 (stereo not drawn) [11,17-dideoxyfistularin (14), 11,17-dideoxyfistularin-3] | >1 | 10 ± 0.3 | >1 | 0,01 µg/mL | >1 |  |  |  |  | DNMT1 activity, percentage of control (DNMT1): statistically significant decrease; MIC toward Halomonas aquamarina (Halomonas aquamarina): 0.01 µg/mL (≈ 0.00924 µM)
COC1=C(Br)[C@H](O)[C@@]2(C=C1Br)CC(C(=O)NCCCOc1c(Br)cc(C(O)CNC(=O)C3=NO[C@]4(C=C(Br)C(OC)=C(Br)[C@@H]4O)C3)cc1Br)=NO2 (stereo partly drawn) [11-deoxyfistularin-3 (13), 11-deoxyfistularin-3] | >1 | > 10 | >1 | 0,01 µg/mL | >1 |  |  |  |  | MIC toward Halomonas aquamarina (Halomonas aquamarina): 0.01 µg/mL (≈ 0.00911 µM)
COC1=C(Br)[C@H](O)[C@@]2(C=C1Br)CC(C(=O)NCCC(O)CNC(=O)C1=NO[C@]3(C=C(Br)C(OC)=C(Br)[C@@H]3O)C1)=NO2 (stereo partly drawn) [11-hydroxyaerothionin (15), 11-hydroxy-aerothionin] | >1 | 10 ± 0.3 | >1 | 0,01 µg/mL | >1 |  |  |  |  | 
COC1=C(Br)[C@H](O)[C@@]2(C=C1Br)CC(C(=O)NCCc1cc(Br)c(OC[C@H](O)CNC(=O)C3=NO[C@]4(C=C(Br)C(OC)=C(Br)[C@@H]4O)C3)c(Br)c1)=NO2 [17-deoxy-11-epi-fistularin-3 (10), 17-deoxy-11(R)-epi-fistularin-3] |  | > 10 |  |  |  | > 1 | > 1 | 0.01 (≈ 0.011 µg/mL) | > 1 | 
COC1=C(Br)[C@H](O)[C@@]2(C=C1Br)CC(C(=O)NCC(=O)c1cc(Br)c(OC[C@H](O)CNC(=O)C3=NO[C@]4(C=C(Br)C(OC)=C(Br)[C@@H]4O)C3)c(Br)c1)=NO2 [17-oxo-11-epi-fistularin-3 (8), 17-oxo-11-epi-fistularin-3] |  |  |  |  |  |  |  |  |  | MIC (Escherichia coli; 48 h, read-out: MIC Escherichia coli): > 1 µM; IC50 [1]: > 10 µM; MIC (Vibrio aesturianus; 48 h, read-out: MIC Vibrio aesturianus): 0.01 µM; MIC (Halomonas aquamarina): > 1 µM; MIC (Roseobacter littoralis): > 1 µM
COC1=C(Br)[C@H](O)[C@@]2(C=C1Br)CC(C(=O)NC[C@@H](O)COc1c(Br)cc([C@H](O)CNC(=O)C3=NO[C@]4(C=C(Br)C(OC)=C(Br)[C@@H]4O)C3)cc1Br)=NO2 [epi-fistularin-3 (1), 11-epi-fistularin-3] |  | > 10 |  |  |  | > 1 | > 1 | > 1 | > 1 | remaining activity at 50 µM (DNMT1; read-out: DNMT1 activity, percentage of control): ~70%; stability in acidic aqueous acetonitrile (degradation products) [2]: gave agelorin A, agelorin B, and the compounds 2–7
COC1=C(Br)[C@H](O)[C@@]2(C=C1Br)CC(C(=O)NC[C@@H](O)COc1c(Br)cc([C@H](O)CNC(=O)/C(Cc3cc(Br)c(OC)c(Br)c3O)=N/O)cc1Br)=NO2 [suberein-1 (2), suberein-1] |  | > 10 |  |  |  | > 1 | 0.01 | > 1 | 1 (≈ 1.11 µg/mL) | 
COC1=C(Br)[C@H](O)[C@@]2(C=C1Br)CC(C(=O)NC[C@@H](O)c1cc(Br)c(OC[C@H](O)CNC(=O)/C(Cc3cc(Br)c(OC)c(Br)c3O)=N/O)c(Br)c1)=NO2 [suberein-2 (3), suberein-2] |  | > 10 |  |  |  | 0.01 | 0.01 | > 1 | > 1 | MIC (Escherichia coli; the lowest concentration tested, read-out: MIC against E. coli): 0.01 µg/mL; MIC (Vibrio aesturianus; the lowest concentration tested, read-out: MIC against V. aesturianus): 0.01 µg/mL
agelorin A [agelorin A (11)] |  |  | 0.1 | 0.1 µg/mL | 0.1 |  |  |  |  | 
agelorin B [agelorin B (12)] | >1 |  | >1 | >1 µg/mL | >1 |  |  |  |  | 

— publication PMC7999702, “Bioactive Bromotyrosine Derivatives from the Pacific Marine Sponge Suberea clavata (Pulitzer-Finali, 1982)” (Marine Drugs, 2021)
